Test results published in patent US20220354811A1, “METHODS AND COMPOSITIONS FOR MODULATING MACROPHAGES POLARIZATION” (INSERM (INSTITUT NATIONAL DE LA SANTÉ ET DE LA RECHERCHE …, priority 2019, published 2022).
Residues, ends and D or L forms follow the SMILES beside them. *: point of attachment. Cbz = O=C(OCc1ccccc1)*; CH2F = FC*

Key:
caspase-8 = caspase-8 (Homo sapiens, UniProt Q14790); assay: Recombinant caspase-8 activity in vitro (Ac-IETD-AMC substrate); type: biochemical; set-up: using active recombinant proteins of caspase-8 and caspase-3; purchased Enzo life sciences ALX-201-062; settings: recombinant caspase-8, Ac-IETD-AMC
Text: FIG. 4. […] (A) Measures of caspase-8 activity (IETD-AMC). IETD-CHO treatment is used as positive control in the in vitro assay. The results are expressed as A.U./min and represent the mean of 3 independent experiments realized in duplicate (B) Measures of caspase-3 activity (DEVD-AMC). DEVD-CHO is used as positive control in the in vitro assay. The results are expressed as A.U./min and represent the mean of 3 independent experiments realized in duplicate. Human CSF-1 was purchased from Miltenyi (130-096-493). […] Mouse caspase-8 was from R&D Systems (AF705). HRP-conjugated rabbit anti-goat was purchased from Dako ([…]) and HRP-conjugated goat anti-rabbit was from Cell Signaling (5127). Active recombinant caspase-8 (ALX-201-062) and -3 (ALX-201-059) were from Enzo life sciences. […] Each assay (in triplicate) was performed with 10 μg of protein prepared from control or stimulated cells. […] Enzyme activities were expressed in arbitrary units (A.U.) per min and per mg of proteins. The same protocol was used with 0.25 units of active recombinant caspase-8 (Enzo, ALX-201-062) or -3 (Enzo, ALX-201-059) in each triplicate.

human primary monocytes = settings: literature (Jacquel et al., Blood 2009, Sci Reports 2018); cited from earlier work

caspase-8, sequence (Q14790 217-374 limits assumed): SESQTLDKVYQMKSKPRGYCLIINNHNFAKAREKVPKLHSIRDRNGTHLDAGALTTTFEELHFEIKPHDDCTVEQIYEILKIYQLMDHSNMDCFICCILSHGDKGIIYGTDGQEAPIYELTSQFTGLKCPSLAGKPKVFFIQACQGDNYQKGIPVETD
caspase-8, sequence (Q14790 385-479 limits assumed): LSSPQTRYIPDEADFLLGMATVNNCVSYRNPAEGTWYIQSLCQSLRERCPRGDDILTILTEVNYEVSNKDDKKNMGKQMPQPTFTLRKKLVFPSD

Compound | IC50 (caspase-8) [nM] | effect on CSF-1-induced monocyte differentiation (human primary monocytes)
CC[C@H](C)[C@H](NC(C)=O)C(=O)N[C@@H](CCC(=O)O)C(=O)N[C@H](C(=O)N[C@H](C=O)CC(=O)O)[C@@H](C)O [Ac-IETD-CHO] (Ac-IETD-aldehyde) | 15 | –
COC(=O)C[C@H](NC(=O)[C@H](C)NC(=O)[C@@H](NC(=O)OCc1ccccc1)C(C)C)C(=O)CF [z-VAD-fmk] (Cbz-Val-Ala-Asp(OMe)-CH2F) | – | inhibits
